Assay results taken from patent US20080193376A1, “Methods of Enhanced Detection and Therapy of Inflamed Tissues Using Immune Modulation” (priority 2004, published 2008).

Tested on: atherosclerotic plaques
Test: Intravascular catheter beta probe detection of FDG in rabbit aorta
Format: in vivo, New Zealand white rabbits
From the text: Male New Zealand white rabbits ranging from 2.5 to 3.0 kilograms in weight (Charles River Breeding Lab) were maintained on a 2% cholesterol-6% peanut oil diet (ICN) for 10 weeks. After 1 week on the peanut oil diet, the abdominal aorta was denuded of endothelium by a modified Baumgartner technique. Briefly, each animal was anesthetized with a mixture of ketamine and xylazine and the right femoral artery was isolated. Subsequently, a 4 F Fogarty embolectomy catheter was introduced via arteriotomy and advanced under fluoroscopic guidance to the level of the diaphragm. The balloon was then inflated to 3 psi (pounds per square inch) above balloon inflation pressure and three passes were made down the abdominal aorta with the inflated catheter. […]
Additionally, FDG was administered intravenously to two additional rabbits. […] Aortic segments at previously assessed sites of plaque and control areas were excised and examined for uptake of FDG by standard well counting.
Sensitivity of the probe was 850±11 cps/μCi (mean±SD). Catheter-determined activity correlated well with well counting measurements, (r=0.89, P<0.001, FIG. 3). Moreover, atherosclerotic regions were readily distinguished from control by catheter mounted beta probe, (11.9±2.1 [n=9, range 9.7±15.3] vs. 4.8±1.9[n=14, range 1.3±7.3], cps in atherosclerotic vs. control regions, respectively, P<0.001; FIG. 4).

SMILES: OC[C@H]1OC(O)[C@H]([18F])[C@@H](O)[C@@H]1O (some centres unmarked) [FDG, ^18F-Fluorodeoxyglucose]
- FDG activity by catheter mounted beta probe (atherosclerotic regions, n=9, FDG intravenously): 11.9±2.1 cps
- FDG activity by catheter mounted beta probe (control regions, n=14, FDG intravenously): 4.8±1.9 cps
